Assays:
Test in all cases: relative viability (nuclei count vs DMSO), 5 days (fraction); higher = more cells survive
[1] = compound: CC1=CN=C(N=C1C2=CNC(=C2)C(=O)N[C@H](CO)C3=CC(=CC=C3)Cl)NC4=C(C=C(C=C4)F)Cl [VX-11e] + CC(=O)c1c(C)c2cnc(Nc3ccc(N4CCNCC4)cn3)nc2n(C2CCCC2)c1=O [Palbociclib] (partner 0.5 µM)
How it was run: (§1)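 Relative viability equals treated-well nuclei counts divided by vehicle-well nuclei counts. Counts came from 4× images of lung cancer cell lines grown in 1536-well plates for 5 days after pin-tool dosing on the day after seeding. Dosing used one drug alone or a fixed anchor-drug dose plus five library-drug doses (not always all listed) in √10 steps, and values are medians of duplicate plates.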

[2] = compound: CC1=CN=C(N=C1C2=CNC(=C2)C(=O)N[C@H](CO)C3=CC(=CC=C3)Cl)NC4=C(C=C(C=C4)F)Cl [VX-11e] + COc1cc2c(Oc3ccc(NC(=O)C4(C(=O)Nc5ccc(F)cc5)CC4)cc3F)ccnc2cc1OCCCN1CCOCC1 [Foretinib] (partner 0.25 µM)
How it was run: as §1

[3] = compound: CC1=CN=C(N=C1C2=CNC(=C2)C(=O)N[C@H](CO)C3=CC(=CC=C3)Cl)NC4=C(C=C(C=C4)F)Cl [VX-11e] + COc1cccc2cc(-c3nc([C@H]4CC[C@H](C(=O)O)CC4)n4ncnc(N)c34)[nH]c12 [OSI-027] (partner 0.5 µM)
How it was run: as §1

[4] = compound: CC1=CN=C(N=C1C2=CNC(=C2)C(=O)N[C@H](CO)C3=CC(=CC=C3)Cl)NC4=C(C=C(C=C4)F)Cl [VX-11e]
How it was run: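 On vehicle-anchored 1536-well plates, lung cancer cell lines held overnight at 37 °C were pinned with five library-drug doses (not always all listed) spaced by √10. With no medium change over 5 days, they were then fixed, permeabilised and Hoechst-stained in one step and imaged at 4×. MetaXpress counted nuclei, and viability is the median across plates of treated-well over vehicle-well nuclei. Acceptance needed control CV below 25% and at least one doubling.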

Cell Line	relative viability ([1]; first compound 0.04 µM)	relative viability ([1]; first compound 0.1265 µM)	relative viability ([1]; first compound 0.4 µM)	relative viability ([1]; first compound 1.265 µM)	relative viability ([1]; first compound 4 µM)	relative viability ([2]; first compound 0.04 µM)	relative viability ([2]; first compound 0.1265 µM)	relative viability ([2]; first compound 0.4 µM)	relative viability ([2]; first compound 1.265 µM)	relative viability ([2]; first compound 4 µM)	relative viability ([3]; first compound 0.04 µM)	relative viability ([3]; first compound 0.1265 µM)	relative viability ([3]; first compound 0.4 µM)	relative viability ([3]; first compound 1.265 µM)	relative viability ([3]; first compound 4 µM)	relative viability ([4]; 0.04 µM)	relative viability ([4]; 0.1265 µM)	relative viability ([4]; 0.4 µM)	relative viability ([4]; 1.265 µM)	relative viability ([4]; 4 µM)
NCI-H322M	0.45	0.417	0.539	0.453	0.462	0.924	0.748	0.981	0.763	0.659	0.535	0.401	0.319	0.417	0.364	0.814	0.517	0.728	0.727	0.605
NCI-H358	0.122	0.139	0.0851	0.148	0.118	0.354	0.541	0.347	0.434	0.147	0.734	0.642	0.25	0.382	0.132	1.01	0.835	0.595	0.805	0.266
NCI-H441	0.175	0.232	–	0.157	0.165	1.14	1.2	–	1.05	0.937	0.519	0.502	–	0.518	0.417	1.19	1.01	–	1.04	0.676
NCI-H460	0.198	0.195	0.146	0.0404	0.0179	0.872	0.984	0.896	0.872	0.189	0.589	0.483	0.181	0.0819	0.0249	1.03	0.972	0.858	0.886	0.342
NCI-H520	0.202	0.254	0.232	0.244	0.292	0.746	0.715	0.69	0.919	0.569	0.247	0.25	0.203	0.217	0.313	0.872	1.06	0.874	1.25	0.898
NCI-H647	0.37	0.346	0.372	0.256	0.217	1.26	1.12	1.19	1.05	0.405	0.664	0.456	0.496	0.41	0.353	0.814	0.884	0.494	0.652	0.426
NCI-H650	0.358	0.487	0.519	0.329	0.491	1.09	1.04	1.1	0.993	1.1	0.531	0.616	0.75	0.559	0.518	0.781	0.925	1.04	0.872	0.974
NCI-H661	0.375	0.406	0.348	0.402	0.379	1.03	1.04	1.05	1.07	0.66	0.727	0.632	0.751	0.625	0.396	1.01	1.02	0.947	1.04	0.724
NCI-H727	0.589	0.358	0.602	0.559	0.412	0.76	0.775	0.846	0.55	0.302	0.353	0.678	0.522	0.447	0.284	0.784	0.933	0.687	0.551	0.347
NCI-H838	0.225	0.187	0.18	0.214	0.203	1.03	1.11	1.05	1.1	0.779	0.356	0.413	0.3	0.347	0.262	0.965	0.913	0.842	0.852	0.736
NCI-H1355	0.432	0.382	0.382	0.319	0.216	0.93	0.94	0.933	0.883	0.543	0.302	0.311	0.197	0.256	0.224	0.766	0.842	0.771	0.756	0.437
NCI-H1395	0.593	0.612	–	0.605	0.483	1.05	0.898	0.931	1	0.666	0.572	0.539	0.57	0.621	0.447	0.781	0.846	0.586	0.717	0.611
NCI-H1437	0.323	0.24	0.321	0.224	0.222	1.27	1.25	1.32	1.36	0.677	0.795	0.725	0.878	0.444	0.373	0.98	0.906	0.924	0.746	0.621
NCI-H1650	0.314	0.258	0.158	0.253	0.28	1.14	0.972	–	1.02	0.711	0.592	0.534	–	0.402	0.307	0.866	0.886	0.521	0.668	0.652
NCI-H1651	0.526	0.493	0.492	0.449	0.498	0.89	0.724	0.781	0.745	0.667	0.56	0.62	0.523	0.548	0.591	0.934	0.921	0.959	0.861	0.939
NCI-H1666	0.616	0.632	–	0.68	0.72	0.957	0.853	0.87	0.692	0.546	0.932	0.777	0.75	0.611	0.524	1.02	0.978	0.764	0.805	0.679

Source: the supplement of paper PMC10307832
